Assay results: patent publication US20150150990A1, “ORAL PHARMACEUTICAL COMPOSITIONS IN A SOLID DISPERSION COMPRISING PREFERABLY POSACONAZOLE AND HPMCAs” (Merck Sharp & Dohme Corp., priority 2008, published 2015)
Values after ≈ are worked out from the molar mass of the structure shown.

Assay: Solubility of posaconazole free base
Type: physicochemical
Protocol: The provision of a solid composition comprising posaconazole suitable for preparing a solid dosage form for oral administration has heretofore been hampered by the poor solubility and weak basicity of the posaconazole free-base compound. Posaconazole is soluble at low pH. For example, in the environment of the stomach (approximately pH 1) posaconazole free base has a solubility of approximately 0.8 mg/mL. However, when posaconazole dissolved in the stomach fluids reaches the environment of the intestines (typically less acidic than about pH 6.4) a substantial amount of the dissolved posaconazole precipitates, hindering absorption in the intestines. It has been determined that in environments where the pH is about pH 6.4 or more basic the solubility of posaconazole free base is less than about 1 microgram/mL.

- solubility (pH 6.4, pH about 6.4 or more basic): < 1 µg/mL
- solubility (simulated gastric fluid, environment of the stomach, approximately pH 1): ~800 µg/mL (≈ 1140 µM)
Compound: CC[C@@H]([C@H](C)O)n1ncn(-c2ccc(N3CCN(c4ccc(OC[C@@H]5CO[C@@](Cn6cncn6)(c6ccc(F)cc6F)C5)cc4)CC3)cc2)c1=O [posaconazole free base, posaconazole]
